Assay results published in US20050271661A1, “Methods and reagents for the treatment of immunoinflammatory disorders” (priority 2004, published 2005).
Each block holds one compound with its values, some of them ahead of it.

What was measured:
[1] = test system: NFAT; experiment: NFAT nuclear translocation by immunofluorescence in PI-activated CCRF-CEM cells; format: cell-based
Description: NFAT1 was visualized using an antibody obtained from BD Transduction Laboratory (#610703).

[2] = test system: NFAT; experiment: NFAT-dependent transcription, NFAT luciferase reporter in CCRF-CEM cells activated with PI; format: cell-based
Description: (§1) Reporter plasmids were transfected into CCRF-CEM cells using nucleofection (Nucleofector; AMAXA, Germany). Reporter plasmids expressing firefly luciferase (Luc) were purchased from Stratagene. pNFAT-Luc contains four NFAT binding sites; pGRE-Luc contains four GRE sites, and pAP1-Luc contains seven AP1 binding sites. The NFκB luciferase reporter, p(IL6κB)3-50hu.IL6-luc+, contains three NFκB sites and was a generous gift of Dr. De Bosscher (University of Ghent, Belgium). 10^7 cells suspended in 100 μL Amaxa ‘R’ Cell-line solution were transferred to a cuvette. One μL (1 μg/μL) of solution containing reporter plasmid (firefly luciferase) and control plasmid (pRL-TK-Renilla) (Renilla luciferase) (Promega) at a ratio of (10:1) were added to the cell suspension. […] After transfection the cells were suspended in 200 μL medium, allowed to recover for an hour, equal volume of medium containing 2× drugs were added and incubated at 37° C. for 30 min. Then the cells were stimulated with PI for another five hours. The luciferase activity of each of plasmid and control Renilla-plasmid were measured as per the procedure in Promega Luciferase assay kit.

[3] = test system: IκB; experiment: IκB degradation western blot, PI-activated primary T cells; format: cell-based, human; details: PI 30 min
Description: (§2) Purified primary human T-cells (10^7 T-cells at 1×10^6 cells/ml) were pretreated with various drugs for 30 min at 37° C. and then stimulated for 30 minutes with PMA and ionomycin. Cells were then pelleted and extracted with 2× protein load dye (Invitrogen, NP0008). Total cell lysates were boiled and centrifuged before loading. 10-15 μl of lysate (approximately 250,000 cells) per lane was run on a 10-12% Tris-Bis gel, or a 3-8% Tris-Acetate gel (precast from Invitrogen). Proteins were immunoblotted onto immobilon PVDF membrane (Millipore) for 30 min using an Owl Semi-Dry electroblotting system. Membranes were blocked with 4% milk for two hours and then incubated with appropriate primary antibodies, washed three times and then probed with secondary antibodies. Chemi-glow™ (Alpha Innotech) chemilluminescent detection solutions were added and image visualized and captured using an Alpha Imager 8900 (Alpha Innotech). NFAT1 was visualized using an antibody obtained from BD Transduction Laboratory (#610703). IκB-alpha was visualized using an antibody from Santa Cruz Biotechnology (#sc371). Mitogen activated protein kinases (MAPK) were visualized using the following antibodies obtained from Cell Signaling: ERK p44/p42 (phospho, #9101; total, #9102); p38 (phospho, #9211; total, #9212); and JNK/SAPK (phospho, #9251; total, #9252).
Primary T cells were activated in vitro with PI (30 min) and extracted for western blot analysis.

[4] = test system: ERK1/2; experiment: ERK1/2 phosphorylation western blot, activated primary T cells; format: cell-based, human; details: highest dose tested: cyclosporine 1 μM, prednisolone 3 μM, amoxapine 30 μM, paroxetine 30 μM
Description: as §2
(§3) Purified primary T cells were activated for 30 minutes and extracted for western blot analysis. Activation of each MAPK was tracked using phosphospecific antibodies to a regulatory site on each type of MAPK, normalized by the measurement of total amounts of each MAPK species (FIGS. 4A-4C).

[5] = test system: p38; experiment: p38 phosphorylation western blot, activated primary T cells; format: cell-based, human; details: primary T cells activated 30 minutes
Description: as §2, §3

[6] = test system: AP1; experiment: AP1-dependent transcription, AP1 luciferase reporter in CCRF-CEM cells activated with PI; format: cell-based
Description: as §1

[7] = test system: NFκB; experiment: NFκB-dependent transcription, NFκB luciferase reporter in CCRF-CEM cells activated with PI; format: cell-based
Description: as §1
NFκB-dependent transcription was measured by transient transfection of an NFκB reporter plasmid into CCRF-CEM cells and subsequent activation with PI.

[8] = test system: NFAT; experiment: NFAT dephosphorylation band shift on western blot, PMA/ionomycin-activated primary T cells; format: cell-based, human; details: up to 3 μM
Description: as §2, with “Mitogen activated protein kinases (MAPK) were visualized using the following antibodies obtained from Cell Signaling: ERK p44/p42 (phospho, #9101; total, #9102); p38 (phospho, #9211; total, #9212); and JNK/SAPK (phospho, #9251; total, #9252).” left out
T cells were isolated from the buffy coat of male donors between the ages of 35 to 50 years. These T cells were activated in vitro with PMA/ionomycin (PI) for 30 minutes and the phosphorylation of NFAT analyzed by mobility shift on a western blot. […]

[9] = test system: JNK; experiment: JNK activation (phosphorylation) western blot, activated primary T cells; format: cell-based, human; details: primary T cells activated 30 minutes
Description: as §2, with “#9252). […]” for “#9252).”

[10] = test system: NFκB; details: activated CCRF-CEM cells, p65

IC50 ([1]; Homo sapiens, read-out: IC50, inhibition of NFAT translocation): 30 µM | IC50 ([2]; Homo sapiens, CCRF-CEM cells, NFAT reporter, read-out: IC50, inhibition of PI-stimulated NFAT transcription): 9 µM | IC50 ([6]; CCRF-CEM cells, AP1 reporter, PI): 20 to 30 µM
SMILES: Fc1ccc([C@@H]2CCNC[C@H]2COc2ccc3c(c2)OCO3)cc1 [paroxetine]
concentration at which IκB stabilization effects begin [3]: 15 µM | prevention of phosphorylation of ERK1/2 [4]: not effective | concentration above which some phospho-p38 inhibition is seen [5]: above 10 μM

SMILES: Clc1ccc2c(c1)C(N1CCNCC1)=Nc1ccccc1O2 [amoxapine]
concentration at which IκB stabilization effects begin [3]: 25 µM | prevention of phosphorylation of ERK1/2 [4]: not effective | effect in the p38 assay [5]: no effect

SMILES: O=C(/C=C/c1ccc(O)c(O)c1)OCCc1ccccc1 [CAPE, caffeic acid phenethyl ester]
inhibition of NFκB-dependent transcription ([7]; CCRF-CEM cells, NFκB reporter, PI): inhibited

SMILES: C[C@]12C=CC(=O)C=C1CC[C@@H]1[C@@H]2[C@@H](O)C[C@@]2(C)[C@H]1CC[C@]2(O)C(=O)CO [prednisolone]
effect on NFAT dephosphorylation [8]: no effect | activity in NFAT translocation assay [1]: not active | inhibition of PI-stimulated NFAT transcription ([2]; even at high doses): no strong inhibition | effect on IκB degradation [3]: no effect | inhibition of NFκB-dependent transcription ([7]; at 1 μM): 30% | prevention of phosphorylation of ERK1/2 [4]: not effective | effect in the p38 assay [5]: no effect | effect on JNK [9]: no effect | inhibition of AP1-dependent transcription ([6]; at 300 nM): 30% | effect on NFκB translocation [10]: no effect
